From patent publication US8637090B2, “Gallium formulation for the treatment and prevention of infectious diseases” (Aridis Pharmaceuticals, priority 2009, dated 2014)
Where two headings read alike, the source gives them in different places.

How the values were obtained:
[1] = tested on: Pseudomonas aeruginosa (Pa); settings: against Pa; cited from earlier work
[2] = Crystallinity of spray dried gallium powders by powder X-ray diffraction; type: physicochemical; settings: qualitative analysis of crystallinity, XRD 5° to 75° 2θ
Method: Crystallinity of the spray dried gallium powders was determined using a Philips X-Pert Pro MPD powder diffractometer. The radiation used was generated by a Cu Kα source with a wavelength of 1.5406 Å at 45 kV and 40 mA. Samples were scanned from 5° to 75° 2θ at a scanning rate of 1.2° 2θ/min using a slit width of 0.25°. Particular emphasis was placed on determining the effects of the various excipients on the crystallinity of the spray dried particles. The composition of the gallium formulations examined, as well as the residual moisture content and a qualitative analysis of crystallinity are shown in Table 8. X-ray diffractometer (XRD) scans reveal that spray dried gallium nitrate is amorphous as are mannitol and L-leucine (FIG. 5). Sodium citrate, however, is crystalline and the crystallinity is maintained even in the presence of other excipients.

Pa = settings: mouse; nasal instillation of a bolus of liquid; also under in vivo Pa biofilm colonization conditions; cited from earlier work
B. anthracis 7702 cells = type: cell-based; settings: 1:1 gallium-to-citrate, approximately 20 hours of growth

## O=[N+]([O-])[O-].O=[N+]([O-])[O-].O=[N+]([O-])[O-].[Ga+3] [Gallium, gallium nitrate]
[1]
  bactericidal concentration (MBC): approximately 0.7 μg/mL
  minimum inhibitory concentration (MIC90): approximately 0.7 μg/mL
[2]
  Crystalline/Amorphous: amorphous
Pa
  protection after lethal i.t. Pa inoculation: good protection
B. anthracis 7702 cells; Gallium concentration 6.8 μM
  OD600 nm: 0.000
B. anthracis 7702 cells; Gallium concentration 23.3 μM
  OD600 nm: 0.000
B. anthracis 7702 cells; Gallium concentration 27.1 μM
  OD600 nm: 0.001
B. anthracis 7702 cells; Gallium concentration 88.9 μM
  OD600 nm: 0.003
B. anthracis 7702 cells; Gallium concentration 614.8 μM
  OD600 nm: 0.000
B. anthracis 7702 cells; Gallium concentration 1709.9 μM
  OD600 nm: 0.000
